From ChEMBL document CHEMBL1201862, “PubChem BioAssay data set” (2004)
Activity calls are given as the source filed them.

Assays:
Cytochrome P450 2D6 = Cytochrome P450 2D6 (Homo sapiens, UniProt P10635); test: qHTS Assay for Inhibitors and Substrates of Cytochrome P450 2D6. [Related pubchem assays: 410 ]; type: ADME; details: read-out: Potency
[1] = target: T1, Alkaline phosphatase, tissue-nonspecific isozyme (Homo sapiens, UniProt P05186)
T1 sequence (P05186 whole entry): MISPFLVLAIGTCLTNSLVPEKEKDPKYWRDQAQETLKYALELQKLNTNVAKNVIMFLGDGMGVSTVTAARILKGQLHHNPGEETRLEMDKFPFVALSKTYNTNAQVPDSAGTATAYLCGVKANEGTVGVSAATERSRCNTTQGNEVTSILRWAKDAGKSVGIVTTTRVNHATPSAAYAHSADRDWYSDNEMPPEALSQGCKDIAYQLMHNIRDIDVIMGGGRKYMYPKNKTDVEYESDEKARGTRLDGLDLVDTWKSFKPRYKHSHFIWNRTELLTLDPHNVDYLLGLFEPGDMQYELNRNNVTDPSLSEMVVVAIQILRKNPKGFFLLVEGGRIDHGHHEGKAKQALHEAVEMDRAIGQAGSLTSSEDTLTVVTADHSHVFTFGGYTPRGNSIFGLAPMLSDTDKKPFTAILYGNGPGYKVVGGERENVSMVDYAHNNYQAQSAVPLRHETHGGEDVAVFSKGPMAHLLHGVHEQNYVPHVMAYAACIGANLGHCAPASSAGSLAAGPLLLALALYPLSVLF

[2] = CCR5-tropic HIV-1 fusion blockers – cell-based, CCR5-tropic Env, dose response (AID 2279); type: functional
[3] = target: Peroxisome proliferator-activated receptor gamma/Nuclear receptor coactivator 2 (Homo sapiens, UniProt P37231); type: functional;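 further: agonist potency for raising coactivator recruitment to the receptor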
[4] = target: Peroxisome proliferator-activated receptor gamma/Nuclear receptor coactivator 3 (Homo sapiens, UniProt P37231); type: functional;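 further: agonist potency for raising coactivator recruitment to the receptor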
[5] = target: Peroxisome proliferator-activated receptor gamma/Nuclear receptor coactivator 1 (Homo sapiens, UniProt P37231); type: functional;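 further: agonist potency as compounds enhance coactivator SRC-1 recruitment to PPARgamma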
[6] = mitochondrial function rescue without frataxin homolog – Friedreich's ataxia, plus single-dose screen, dose response (AID 1465); type: functional;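 further: yeast depleted of Yfh1p frataxin homolog grown on glycerol needing respiration; WST-1 tetrazolium dye reduction as measure of cellular dehydrogenase metabolic activity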
Leucine aminopeptidase = target: T2, Leucine aminopeptidase (Plasmodium falciparum 3D7, UniProt Q8IL11); test: P. falciparum M17LAP inhibitors, primary screen, biochemical, fluorogenic H-Leu-NHMec substrate, 1536-well (AID 1619); type: functional
T2 sequence (Q8IL11 whole entry): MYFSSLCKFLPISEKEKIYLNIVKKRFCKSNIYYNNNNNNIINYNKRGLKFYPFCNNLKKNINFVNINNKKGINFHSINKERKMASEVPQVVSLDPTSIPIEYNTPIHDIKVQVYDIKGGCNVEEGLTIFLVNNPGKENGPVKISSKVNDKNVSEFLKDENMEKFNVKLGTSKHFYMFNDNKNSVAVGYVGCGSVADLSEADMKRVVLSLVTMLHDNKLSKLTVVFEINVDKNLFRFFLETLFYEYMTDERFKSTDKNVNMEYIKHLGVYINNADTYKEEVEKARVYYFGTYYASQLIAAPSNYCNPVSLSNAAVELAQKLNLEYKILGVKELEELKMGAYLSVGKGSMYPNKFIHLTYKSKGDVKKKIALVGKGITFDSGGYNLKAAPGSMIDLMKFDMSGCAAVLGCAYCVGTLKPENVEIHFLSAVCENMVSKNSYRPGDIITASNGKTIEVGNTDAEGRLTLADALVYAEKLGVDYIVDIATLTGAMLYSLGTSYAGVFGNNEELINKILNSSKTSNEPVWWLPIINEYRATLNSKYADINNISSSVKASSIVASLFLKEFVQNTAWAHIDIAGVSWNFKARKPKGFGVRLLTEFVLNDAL

[7] = target: T3, Potassium voltage-gated channel subfamily KQT member 2 (Rattus norvegicus, UniProt O88943); test: (§1) Mode of action - deactivation constant concentration response for ztz240, a potentiator of KCNQ2 potassium channels. [Related pubchem assays: 2258 (Summary assay for the KCNQ2 potentiators.), 2239 (Primary HTS assay for KCNQ2 potentiators with 305606 compounds tested, and 1644 are found to be active.)]; type: functional
[8] = target: T3, Potassium voltage-gated channel subfamily KQT member 2; test: as §1, with “action assay” for “action”, “current amplitude” for “deactivation constant”, “derivatives of ZTZ240,” for “ztz240,”; type: functional
Procathepsin L = Procathepsin L (Homo sapiens, UniProt P07711)
[9] = target: T4, Histone-lysine N-methyltransferase NSD2 (Homo sapiens, UniProt O96028); type: biochemical
T4 sequence (O96028 whole entry): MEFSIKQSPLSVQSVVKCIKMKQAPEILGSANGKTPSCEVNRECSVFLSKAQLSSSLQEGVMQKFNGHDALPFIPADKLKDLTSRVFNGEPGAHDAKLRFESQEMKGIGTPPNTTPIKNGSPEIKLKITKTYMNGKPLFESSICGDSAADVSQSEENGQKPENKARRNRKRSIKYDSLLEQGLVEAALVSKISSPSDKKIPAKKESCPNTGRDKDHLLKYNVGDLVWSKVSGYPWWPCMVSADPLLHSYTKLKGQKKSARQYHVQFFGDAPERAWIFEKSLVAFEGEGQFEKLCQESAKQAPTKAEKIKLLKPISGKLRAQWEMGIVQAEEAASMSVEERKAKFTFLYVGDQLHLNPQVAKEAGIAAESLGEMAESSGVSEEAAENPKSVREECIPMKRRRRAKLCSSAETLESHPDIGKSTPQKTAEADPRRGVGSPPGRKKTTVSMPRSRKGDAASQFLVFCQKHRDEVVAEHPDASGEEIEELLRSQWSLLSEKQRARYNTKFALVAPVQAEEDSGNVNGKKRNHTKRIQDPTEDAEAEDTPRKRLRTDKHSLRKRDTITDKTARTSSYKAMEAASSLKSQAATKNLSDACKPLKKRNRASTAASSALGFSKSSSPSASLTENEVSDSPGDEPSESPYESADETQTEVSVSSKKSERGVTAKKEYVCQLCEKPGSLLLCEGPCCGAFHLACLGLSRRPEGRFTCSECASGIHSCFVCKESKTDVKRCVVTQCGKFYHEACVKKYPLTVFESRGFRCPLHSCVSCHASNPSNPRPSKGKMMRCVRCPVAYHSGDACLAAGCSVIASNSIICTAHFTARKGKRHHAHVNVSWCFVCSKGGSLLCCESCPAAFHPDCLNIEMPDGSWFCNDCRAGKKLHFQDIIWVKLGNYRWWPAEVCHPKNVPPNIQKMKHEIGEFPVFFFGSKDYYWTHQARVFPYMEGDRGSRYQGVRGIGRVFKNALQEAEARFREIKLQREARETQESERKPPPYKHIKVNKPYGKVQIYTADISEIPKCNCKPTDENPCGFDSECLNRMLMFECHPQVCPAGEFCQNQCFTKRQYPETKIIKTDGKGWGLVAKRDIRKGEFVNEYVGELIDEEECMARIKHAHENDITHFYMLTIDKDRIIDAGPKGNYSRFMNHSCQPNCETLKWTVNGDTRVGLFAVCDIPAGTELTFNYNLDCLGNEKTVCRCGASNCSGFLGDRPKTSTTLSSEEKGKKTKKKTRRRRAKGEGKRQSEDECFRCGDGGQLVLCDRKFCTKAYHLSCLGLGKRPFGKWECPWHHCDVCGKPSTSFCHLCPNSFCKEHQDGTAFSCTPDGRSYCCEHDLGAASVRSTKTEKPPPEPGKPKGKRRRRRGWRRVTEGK

Aspartyl aminopeptidase = Aspartyl aminopeptidase (Plasmodium falciparum 3D7, UniProt Q8I2J3)
[10] = target: Ras and Rab interactor 1/Tyrosine-protein kinase ABL1 (Homo sapiens, UniProt P00519+Q13671); type: functional;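 further: biochemical TR-FRET dose-response test measuring inhibition of binding between Rin1 and Abl proteins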
Protein Tat = target: T5, Protein Tat (Human immunodeficiency virus type 1 group M subtype B (isolate HXB2)(HIV-1), UniProt P04608); type: functional;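 further: tat binding to TAR RNA read out by fluorescence polarization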
T5 sequence (P04608 whole entry): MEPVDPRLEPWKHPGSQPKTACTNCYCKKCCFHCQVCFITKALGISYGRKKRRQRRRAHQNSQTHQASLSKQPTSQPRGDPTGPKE

[11] = target: Neuropeptide Y receptor type 2 (Homo sapiens, UniProt P49146); test: Fluorescence-based cell-based high-throughput dose response assay for agonists of NPY-Y2. [Related pubchem assays: 1703 (Screening assay (CNGC inhibitors).), 1359 (Screening assay (NPY-Y2 potentiators or agonists).), 1304 (Screening assay (NPY-Y1 potentiators or agonists).), 1710 (Screening assay (NPY-Y2 agonists).), 1791 (Summary AID.)]; type: functional
HEK293 = test: Fluorescence-based counterscreen for potentiators or agonists of NPY-Y2: cell-based high-throughput dose response assay to identify inhibitors of cyclic nucleotide gated ion channel (CNGC) activity. In this assay, the parental HEK293 cell line transfected with a cyclic-nucleotide gated ion channel (CNGC)-based cAMP sensor is used to measure inhibition of isoproterenol-induced CNGC activity by test compound.; type: functional; details: Homo sapiens;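 further: stimulus is 1 µM isoproterenol at EC100 plus PDE inhibitor Ro 20-1724 at 25 µM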
[12] = target: Neuropeptide Y receptor type 1 (Homo sapiens, UniProt P25929); test: Fluorescence-based counterscreen for agonists of NPY-Y2: cell-based high-throughput dose response assay for agonists of NPY-Y1.; type: functional
Streptococcus = test: Luminescence Microorganism-Based Dose Response Follow up to Identify Compounds Cytotoxic to Streptococcus. [Related pubchem assays: 1677 (Project Summary), 1915, 1914, 1902 (Retest at Dose), 1900 (Counter Screen), 1662 (Primary HTS)]; type: functional, organism-based

T3 sequence (O88943 whole entry): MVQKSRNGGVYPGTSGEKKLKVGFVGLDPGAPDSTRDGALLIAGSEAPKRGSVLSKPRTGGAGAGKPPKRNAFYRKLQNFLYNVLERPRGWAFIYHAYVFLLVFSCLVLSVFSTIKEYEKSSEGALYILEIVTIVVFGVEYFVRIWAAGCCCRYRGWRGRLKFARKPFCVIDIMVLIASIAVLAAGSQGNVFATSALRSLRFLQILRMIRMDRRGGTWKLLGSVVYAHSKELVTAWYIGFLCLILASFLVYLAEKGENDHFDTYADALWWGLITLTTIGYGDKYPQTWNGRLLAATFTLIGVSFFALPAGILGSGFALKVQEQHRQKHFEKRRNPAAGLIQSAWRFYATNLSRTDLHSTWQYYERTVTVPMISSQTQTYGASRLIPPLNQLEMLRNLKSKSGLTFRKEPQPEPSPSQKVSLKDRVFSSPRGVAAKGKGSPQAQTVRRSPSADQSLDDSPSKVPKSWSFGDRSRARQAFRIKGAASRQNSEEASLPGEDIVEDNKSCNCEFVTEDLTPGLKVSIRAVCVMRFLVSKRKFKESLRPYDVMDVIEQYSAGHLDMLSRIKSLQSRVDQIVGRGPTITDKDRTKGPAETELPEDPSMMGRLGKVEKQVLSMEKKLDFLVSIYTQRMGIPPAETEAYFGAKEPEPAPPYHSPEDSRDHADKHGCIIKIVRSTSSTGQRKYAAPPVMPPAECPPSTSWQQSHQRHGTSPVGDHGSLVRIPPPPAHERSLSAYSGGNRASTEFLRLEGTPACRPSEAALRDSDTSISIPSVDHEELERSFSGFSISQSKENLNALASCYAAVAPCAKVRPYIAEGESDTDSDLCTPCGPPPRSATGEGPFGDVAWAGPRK
Sequence of Procathepsin L (P07711 whole entry): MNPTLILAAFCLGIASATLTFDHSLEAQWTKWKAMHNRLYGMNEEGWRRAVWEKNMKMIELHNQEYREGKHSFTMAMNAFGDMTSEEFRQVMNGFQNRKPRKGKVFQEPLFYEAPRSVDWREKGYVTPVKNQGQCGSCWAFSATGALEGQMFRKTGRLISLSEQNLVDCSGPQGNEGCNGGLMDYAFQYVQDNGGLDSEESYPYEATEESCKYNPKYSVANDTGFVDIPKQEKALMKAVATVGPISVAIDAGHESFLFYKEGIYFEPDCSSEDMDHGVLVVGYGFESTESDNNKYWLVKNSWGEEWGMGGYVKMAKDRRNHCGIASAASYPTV
Sequence of Peroxisome proliferator-activated receptor gamma/Nuclear receptor coactivator 2 (P37231 whole entry): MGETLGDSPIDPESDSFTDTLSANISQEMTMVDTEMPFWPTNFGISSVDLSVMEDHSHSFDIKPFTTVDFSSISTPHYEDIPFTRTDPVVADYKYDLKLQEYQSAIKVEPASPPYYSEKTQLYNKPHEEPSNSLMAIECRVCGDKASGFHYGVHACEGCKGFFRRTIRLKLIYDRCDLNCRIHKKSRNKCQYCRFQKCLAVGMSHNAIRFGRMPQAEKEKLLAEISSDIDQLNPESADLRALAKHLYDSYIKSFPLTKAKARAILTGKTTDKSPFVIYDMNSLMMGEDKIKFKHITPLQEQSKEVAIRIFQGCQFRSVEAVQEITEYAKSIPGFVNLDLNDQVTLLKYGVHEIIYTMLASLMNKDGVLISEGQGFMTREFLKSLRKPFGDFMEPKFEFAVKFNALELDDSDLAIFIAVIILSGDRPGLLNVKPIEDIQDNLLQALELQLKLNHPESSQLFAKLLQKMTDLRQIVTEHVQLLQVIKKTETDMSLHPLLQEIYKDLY
Sequence of Peroxisome proliferator-activated receptor gamma/Nuclear receptor coactivator 2 (Q15596 whole entry, further chain): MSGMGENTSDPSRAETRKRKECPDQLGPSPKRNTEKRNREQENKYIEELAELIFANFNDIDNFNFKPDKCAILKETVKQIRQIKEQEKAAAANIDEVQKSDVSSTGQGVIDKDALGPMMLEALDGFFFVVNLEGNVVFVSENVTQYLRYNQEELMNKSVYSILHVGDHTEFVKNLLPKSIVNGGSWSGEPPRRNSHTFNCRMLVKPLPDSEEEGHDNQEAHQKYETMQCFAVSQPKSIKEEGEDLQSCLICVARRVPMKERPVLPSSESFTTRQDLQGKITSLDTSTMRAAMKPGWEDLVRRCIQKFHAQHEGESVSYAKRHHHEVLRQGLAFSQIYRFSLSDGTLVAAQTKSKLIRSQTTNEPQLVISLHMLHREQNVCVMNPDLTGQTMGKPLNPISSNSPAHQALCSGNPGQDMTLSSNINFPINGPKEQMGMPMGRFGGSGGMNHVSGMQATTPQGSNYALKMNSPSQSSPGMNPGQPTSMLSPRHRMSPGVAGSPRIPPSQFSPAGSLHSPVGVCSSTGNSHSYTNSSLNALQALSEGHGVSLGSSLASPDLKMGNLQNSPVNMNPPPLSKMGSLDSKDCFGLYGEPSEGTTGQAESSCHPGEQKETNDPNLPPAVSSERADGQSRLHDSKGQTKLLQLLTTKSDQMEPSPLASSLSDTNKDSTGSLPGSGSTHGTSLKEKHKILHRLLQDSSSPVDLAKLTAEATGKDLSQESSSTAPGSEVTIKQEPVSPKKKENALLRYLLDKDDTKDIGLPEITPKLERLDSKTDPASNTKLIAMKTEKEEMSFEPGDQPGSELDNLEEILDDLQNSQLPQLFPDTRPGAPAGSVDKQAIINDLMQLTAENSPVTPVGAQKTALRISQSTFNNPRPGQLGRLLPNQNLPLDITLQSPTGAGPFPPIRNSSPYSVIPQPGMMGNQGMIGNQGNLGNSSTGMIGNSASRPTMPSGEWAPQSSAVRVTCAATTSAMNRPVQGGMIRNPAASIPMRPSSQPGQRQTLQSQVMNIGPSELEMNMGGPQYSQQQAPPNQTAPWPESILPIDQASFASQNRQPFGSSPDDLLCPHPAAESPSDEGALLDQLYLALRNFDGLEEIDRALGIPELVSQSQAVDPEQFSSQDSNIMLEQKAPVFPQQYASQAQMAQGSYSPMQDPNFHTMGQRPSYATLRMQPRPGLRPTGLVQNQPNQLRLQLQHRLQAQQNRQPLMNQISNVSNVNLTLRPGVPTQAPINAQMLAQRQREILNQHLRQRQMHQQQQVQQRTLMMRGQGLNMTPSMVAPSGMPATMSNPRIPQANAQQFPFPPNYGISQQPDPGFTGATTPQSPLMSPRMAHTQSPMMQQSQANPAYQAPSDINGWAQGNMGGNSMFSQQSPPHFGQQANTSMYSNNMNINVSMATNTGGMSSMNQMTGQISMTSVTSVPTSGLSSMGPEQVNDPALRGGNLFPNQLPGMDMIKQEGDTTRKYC
Sequence of Peroxisome proliferator-activated receptor gamma/Nuclear receptor coactivator 1 (P37231 whole entry): as the sequence (P37231 whole entry) above
Sequence of Peroxisome proliferator-activated receptor gamma/Nuclear receptor coactivator 1 (Q15788 whole entry, further chain): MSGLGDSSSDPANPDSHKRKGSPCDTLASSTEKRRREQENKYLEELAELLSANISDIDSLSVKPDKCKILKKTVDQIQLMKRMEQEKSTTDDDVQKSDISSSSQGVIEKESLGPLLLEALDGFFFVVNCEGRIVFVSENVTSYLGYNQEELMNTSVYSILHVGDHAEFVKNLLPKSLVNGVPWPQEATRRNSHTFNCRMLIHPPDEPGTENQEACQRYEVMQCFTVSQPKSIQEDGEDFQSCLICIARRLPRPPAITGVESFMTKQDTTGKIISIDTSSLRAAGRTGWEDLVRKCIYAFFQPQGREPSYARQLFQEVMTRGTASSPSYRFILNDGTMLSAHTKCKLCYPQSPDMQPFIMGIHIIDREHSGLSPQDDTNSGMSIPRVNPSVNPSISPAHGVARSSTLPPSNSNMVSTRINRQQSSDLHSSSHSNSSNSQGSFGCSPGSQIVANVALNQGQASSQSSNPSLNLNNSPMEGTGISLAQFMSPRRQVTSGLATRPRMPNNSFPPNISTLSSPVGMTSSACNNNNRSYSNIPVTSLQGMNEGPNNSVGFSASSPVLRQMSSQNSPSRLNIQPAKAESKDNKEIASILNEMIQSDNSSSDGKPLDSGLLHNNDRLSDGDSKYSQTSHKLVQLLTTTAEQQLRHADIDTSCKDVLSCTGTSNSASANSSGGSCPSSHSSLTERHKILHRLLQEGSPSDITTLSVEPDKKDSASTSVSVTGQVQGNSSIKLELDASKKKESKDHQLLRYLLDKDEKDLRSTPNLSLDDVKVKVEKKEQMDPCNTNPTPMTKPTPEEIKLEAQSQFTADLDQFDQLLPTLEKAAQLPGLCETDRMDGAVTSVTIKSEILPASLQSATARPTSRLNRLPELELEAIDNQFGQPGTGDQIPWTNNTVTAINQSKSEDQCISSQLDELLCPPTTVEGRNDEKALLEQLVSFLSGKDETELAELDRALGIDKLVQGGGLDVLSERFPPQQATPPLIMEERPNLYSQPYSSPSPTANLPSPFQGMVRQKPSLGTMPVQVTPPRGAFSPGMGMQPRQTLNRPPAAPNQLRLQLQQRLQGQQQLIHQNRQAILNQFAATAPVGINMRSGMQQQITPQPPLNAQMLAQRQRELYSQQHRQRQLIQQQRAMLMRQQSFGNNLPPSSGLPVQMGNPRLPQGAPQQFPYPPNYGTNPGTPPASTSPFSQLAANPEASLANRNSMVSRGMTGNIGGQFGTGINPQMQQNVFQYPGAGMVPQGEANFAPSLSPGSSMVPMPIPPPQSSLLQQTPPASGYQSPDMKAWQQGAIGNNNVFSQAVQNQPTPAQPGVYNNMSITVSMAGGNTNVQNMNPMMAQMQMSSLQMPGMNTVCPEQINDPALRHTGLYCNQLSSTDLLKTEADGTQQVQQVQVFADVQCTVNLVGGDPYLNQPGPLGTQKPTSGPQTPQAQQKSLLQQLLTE

SMILES: CC12C=C(/C=C/CCc3ccco3)C(C)(C1)C(CCc1ccco1)CC2=O (stereo not given)
- AC50 (Cytochrome P450 2D6): 6.31 µM (inconclusive)

SMILES: Cc1ccc(C)n1-c1ccc(C(=O)NN)s1
- EC50 [1]: > 100 µM (not active)

SMILES: O=C1/C(=C\c2ccc(O)c(O)c2)C(c2ccccc2)=NN1c1ccccc1
- IC50 [2]: 27.1 µM (active)

SMILES: CCOC(=O)c1c(C)[nH]c(C(=O)COC(=O)CNC(=O)C2CCCCC2)c1C
- EC50 [3]: > 79.4 µM (not active)
- EC50 [4]: > 79.4 µM (not active)
- EC50 [5]: > 79.4 µM (not active)

SMILES: N#C/C(=C/c1ccc(N2CCOCC2)o1)C(=O)NC1CCCCC1
- EC50 [6]: > 100 µM (active)
- IC50 (Leucine aminopeptidase): 109 µM (active)

SMILES: O=C(Nc1ccc(Cl)nc1)c1ccc(F)cc1
- EC50 [7]: 5.9 µM (active)
- EC50 [8]: 1.46 µM (active)

SMILES: O=C(/C=C/c1ccc(O)c(O)c1)OC1C(O)CC(OC(=O)/C=C/c2ccc(O)c(O)c2)(C(=O)O)CC1O (stereo not given)
- IC50 (cells): 31.9 µM (active)
- IC50 (Procathepsin L): > 59.6 µM (not active)
- AC50 [9]: 5.43 µM (active)
- IC50 (Aspartyl aminopeptidase): 1.94 µM (active)
- IC50 [10]: 18.9 µM (inactive)
- IC50 (Protein Tat): 85.2 µM (inconclusive)

SMILES: O=C(N/N=C/c1ccc(OC(F)F)cc1)c1cccc(S(=O)(=O)N2CCOCC2)c1
- EC50 [11]: > 35.4 µM (not active)
- EC50 (HEK293): > 35.4 µM (not active)
- EC50 [12]: > 35.4 µM (not active)

SMILES: Cc1ccc(C(=O)N2c3ccccc3Sc3ccccc32)cc1
- EC50 (Streptococcus): > 500 µM (not active)
